# Data from paper PMC6993238, “Development of a new class of PSMA radioligands comprising ibuprofen as an albumin-binding entity” (Theranostics, 2020).
# Legend:
# PSMA = target: T1, PSMA (Homo sapiens, UniProt Q04609); experiment: Determination of KD values (saturation binding on PC-3 PIP tumor cells); settings: 30 min at 4 °C, 2-PMPA block for non-specific binding
# T1 construct: expressed in transfected cells; host or cells: PC-3 PIP (PSMA-transfected subline of human PC-3 prostate cancer cells), provided by Prof; Martin Pomper
# Description: The KD values, indicating the PSMA-binding affinity of the radioligands, were determined using PC-3 PIP tumor cells. The cells were seeded in 48-well-plates (8 x 10^4 cells in 500 µL RPMI medium/well) allowing adhesion and growth overnight. During the experiment, well plates were kept on ice. After removal of the supernatant, the cells were washed once with ice-cold PBS (pH 7.4) before addition of different concentrations (1‒2000 nM) of the radiolabeled PSMA ligands (5 MBq/nmol) in ice-cold RPMI medium without supplements. Some of the PC-3 PIP tumor cell samples were co-incubated with 2-phosphonomethyl pentanedioic acid (2-PMPA, 200 μM) to block PSMA enabling the determination of non-specific binding. After incubation of the well-plates for 30 min at 4 °C, the supernatants were removed and the cells washed twice with ice-cold PBS. The cells were lysed (NaOH, 1 M, 600 µL) and transferred to 4 mL tubes for counting the activity in a γ-counter (Wallac Wizard 1480, Perkin Elmer). The KD values were determined by plotting specific binding (total binding minus unspecific binding determined with blocking agent) against the molar concentration of the added radioligands. […] Statistical significance was assessed using a one-way ANOVA with a Tukeys's multiple comparison post-test in GraphPad Prism software (version 7). […]
# mouse plasma proteins = experiment: Ultrafiltration assay, binding to mouse plasma proteins; assay type: in vitro ADME; settings: 37 °C, 30 min
# Description: (§1) In short, the PSMA ligands were labeled with ^177Lu at a molar activity of 50 MBq/nmol, diluted in PBS (pH 7.4) to an activity concentration of 10 MBq/500 μL and incubated in mouse or human plasma at 37 °C for 30 min. After incubation, each sample was loaded on a centifree ultrafiltration device (4104 centrifugal filter units; Millipore, 30000 Da nominal molecular weight limit, methylcellulose micropartition membranes) and centrifuged at 2000 rpm for 40 min at 20 °C to allow the separation of the unbound and plasma-bound radioligand fractions. Samples from the loading solution and samples from the filtrate were taken and counted for radioactivity in a γ-counter. The amount of plasma-bound radioligand was calculated as the fraction of radioactivity measured […] relative to the corresponding loading solution (set to 100%). Control experiments were performed with each radioligand by incubation in PBS (pH 7.4) prior to filtration in order to determine the unspecific binding of the radioligands to the filter membrane. The experiments were performed at least three times for each radioligand. A one-way ANOVA with a Tukeys's multiple comparison post-test was used for statistical analysis in GraphPad Prism software (version 7). A p-value of <0.05 was considered statistically significant.
# [1] = Radiolytic stability at high activity concentration (HPLC); assay type: physicochemical; settings: 24 h, saline with L-ascorbic acid (3 mg), 250 MBq/500 μL, room temperature
# Description: The radiolytic stability of the PSMA radioligands (50 MBq/nmol) was determined at a high activity concentration (250 MBq/500 μL saline) over a period of 24 h in the absence or presence of L-ascorbic acid (3 mg). The samples were kept at room temperature and aliquots were taken 1 h, 4 h and 24 h after labeling in order to determine the amount of intact radioligand using HPLC as previously reported (Supplementary Material), [29].
# Methods: Radioly tic stability of each PSMA radioligand was assessed over a period of 24 h. For this purpose, Ibu-PSMA, Ibu-Dα-PSMA, Ibu-N-PSMA and Ibu-DAB-PSMA were labeled with 177Lu in a volume of 120 µL at a molar activity of 50 MBq/nmol. After quality control using HPLC (t = 0, radiochemical purity ≥ 96%), the labeling solutions were diluted with saline to 250 MBq/500 µL and radioligand integrity was determined for each radioligand with and without addition of L-ascorbic acid (3 mg). The radioligand dilutions were incubated at room temperature and radioligand degradation was determined by HPLC after 1 h, 4 h and 24 h incubation time as previously reported. The HPLC chromatograms were analyzed by integration of the peaks representing the radiolabeled product, the released 177Lu as well as degradation products of unknown structure (Figure S3). […]
# [2] = test system: non-tumor-bearing athymic BALB/c nude mice; experiment: In vivo excretion, whole-body activity measurement; parameters: species or system mouse; settings: 4 h p.i.; activity right after injection = 100%
# Description: 14. Determination of the in vivo excretion of the radioligands
# Methods: In order to determine the retention and excretion of each radioligand, non-tumor-bearing athymic BALB/c nude mice were injected with each radioligand (n = 2−3; per radioligand). The mice were measured for radioactivity immediately after injection and at several time points after injection up to 56 h p.i. (Figure S8). The PSMA ligands were, therefore, labeled at a molar activity of 25 MBq/nmol and diluted in saline containing 0.05% bovine serum albumin (BSA). Mice were intravenously injected with the respective radioligand (25 MBq, 1 nmol, 100 µL) and – after e mptying the urinary bladder – measured in a dose calibrator immediately (t = 0) and at various time points after injection up to 56 h p.i..
# The activity measured right after injection was set as 100%. The data points present the average of three mice per radioligand ± standard deviation (SD). […]
# to the albumin-binding properties of the incorporated ibuprofen. The ibuprofen-bearing radioligands […]
# p-tolyl moiety as stronger albumin binder. […]
# excretion patterns for the single radioligands, which was manifested most prominently between 1 h and 4 h p.i. At all measured time points, retention was highest for the radioligand without additional linker entity, 177Lu-Ibu-PSMA. […]
# Figure S8. […] The activity measured right after injection was set as 100%. […]
# human plasma proteins = experiment: Ultrafiltration assay, binding to human plasma proteins; assay type: in vitro ADME; settings: 37 °C, 30 min
# Description: as §1
# [3] = test system: PC-3 PIP/flu tumor-bearing mice; parameters: method as in Benešová et al. 2018 [1]; AUC value PC-3 PIP tumor / AUC value Blood / AUC value Kidneys / AUC value Liver / AUC value Salivary glands: concentration or dose not given beside the values; settings: previously published, ref Benešová et al. 2018 [1], cited from earlier work
# [4] = n-octanol/PBS; cited from earlier work
# T1 sequence (Q04609 whole entry): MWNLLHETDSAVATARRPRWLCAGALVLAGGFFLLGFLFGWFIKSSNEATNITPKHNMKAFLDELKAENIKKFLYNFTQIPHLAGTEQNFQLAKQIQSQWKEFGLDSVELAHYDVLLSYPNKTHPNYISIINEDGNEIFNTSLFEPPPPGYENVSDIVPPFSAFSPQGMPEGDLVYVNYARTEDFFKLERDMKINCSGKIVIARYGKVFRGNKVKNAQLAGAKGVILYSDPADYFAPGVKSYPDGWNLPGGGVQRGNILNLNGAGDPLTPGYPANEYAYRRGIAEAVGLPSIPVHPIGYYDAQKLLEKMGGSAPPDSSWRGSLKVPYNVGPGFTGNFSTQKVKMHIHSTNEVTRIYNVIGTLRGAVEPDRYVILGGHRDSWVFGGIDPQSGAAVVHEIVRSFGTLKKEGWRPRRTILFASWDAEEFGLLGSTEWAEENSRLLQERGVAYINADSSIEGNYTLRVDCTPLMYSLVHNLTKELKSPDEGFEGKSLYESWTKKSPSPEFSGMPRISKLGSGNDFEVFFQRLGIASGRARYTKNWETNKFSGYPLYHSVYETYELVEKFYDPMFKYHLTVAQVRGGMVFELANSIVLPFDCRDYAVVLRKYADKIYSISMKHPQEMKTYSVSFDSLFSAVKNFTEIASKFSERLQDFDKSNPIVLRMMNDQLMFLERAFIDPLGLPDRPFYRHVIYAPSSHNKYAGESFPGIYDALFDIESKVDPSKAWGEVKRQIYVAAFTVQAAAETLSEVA
compound,measurement,setting,value
O=C([O-])CN1CCN(CC(=O)[O-])CCN(CC(=O)NCC2CCC(C(=O)N[C@@H](Cc3ccc4ccccc4c3)C(=O)NCCCC[C@H](NC(=O)N[C@@H](CCC(=O)O)C(=O)O)C(=O)O)CC2)CCN(CC(=O)[O-])CC1.[177Lu+3] (stereo partly drawn) [^177Lu-PSMA-617],Kd,PSMA,13 ± 1 nM
same,binding to mouse plasma proteins (bound fraction),mouse plasma proteins,6.0 ± 2%
same,intact radioligand,[1],over 91%
same,body retention of activity,[2],3.2%
same,binding to human plasma proteins (bound fraction),human plasma proteins,59 ± 1%
same,AUC value Blood,[3]; non-decay-corrected data,52 ± 2 % IA/g*h
same,AUC value Kidneys,[3]; non-decay-corrected data,99 ± 11 % IA/g*h
same,AUC value Liver,[3]; non-decay-corrected data,6.2 ± 1.6 % IA/g*h
same,AUC value PC-3 PIP tumor,[3]; non-decay-corrected data,3691 ± 156 % IA/g*h
same,AUC value Salivary glands,[3]; non-decay-corrected data,0.5 ± 0.2 % IA/g*h
same,Ratio of AUC values AUCTu-to-AUCBl,[3]; tumor-to-blood,71 ± 6
same,Ratio of AUC values AUCTu-to-AUCKi,[3]; tumor-to-kidney,37 ± 6
same,Ratio of AUC values AUCTu-to-AUCLi,[3]; tumor-to-liver,592 ± 179
same,Ratio of AUC values AUCTu-to-AUCSG,[3]; tumor-to-salivary gland,7382 ± 3265
same,logD value,[4],-4.4 ± 0.2
